Assay results: ChEMBL document CHEMBL1782003, “Development and SAR of functionally selective allosteric modulators of GABAA receptors” (Bioorg Med Chem, 2011)
Converted amounts (≈) assume the structure as drawn.

Test: physchem
Conditions: DMSO

Row | SMILES | solubility
1 | CCC(C)(C)N1Cc2nc3c(-c4cc(OC)ccc4OC)cccc3c(N)c2C1=O | 2 µM (≈ 0.811 µg/mL)
2 | CCCN1Cc2nc3c(CC(C)(C)C)cccc3c(N)c2C1=O | 3.4 µM (≈ 1.06 µg/mL)
3 | CCCNC(=O)c1nnc2c(CC(C)C)cccc2c1N | 4.6 µM (≈ 1.32 µg/mL)
4 | CCCNC(=O)c1nnc2c(-c3ccccc3)cccc2c1N | 9.5 µM (≈ 2.91 µg/mL)
5 | CCCNC(=O)c1nnc2c(-c3cc(C)ccc3C)cccc2c1N | 1.4 µM (≈ 0.468 µg/mL)
6 | CCCNC(=O)c1nnc2c(-c3cccc(C)c3)cccc2c1N | 8 µM (≈ 2.56 µg/mL)
7 | CCCNC(=O)c1nnc2c(-c3ccccc3C)cccc2c1N | 26.8 µM (≈ 8.59 µg/mL)
8 | CCCNC(=O)c1nnc2c(-c3ccc(C)cc3C)cccc2c1N | 0.8 µM (≈ 0.268 µg/mL)
9 | CCCNC(=O)c1nnc2c(-c3cc(C)cc(C)c3)cccc2c1N | 0.8 µM (≈ 0.268 µg/mL)
10 | COc1ccc(OC)c(-c2cccc3c(N)c(C(=O)NC4CC4)nnc23)c1 | 8.9 µM (≈ 3.24 µg/mL)
11 | COc1ccc(OC)c(-c2cccc3c(N)c(C(=O)NC4CC(C)C4)nnc23)c1 (stereo not given) | 1.8 µM (≈ 0.706 µg/mL)
12 | COc1ccc(OC)c(-c2cccc3c(N)c(C(=O)NC4CCC4)nnc23)c1 | 4.3 µM (≈ 1.63 µg/mL)
13 | CCNC(=O)c1nnc2c(-c3cc(OC)ccc3OC)cccc2c1N | 8.2 µM (≈ 2.89 µg/mL)
14 | COc1ccc(OC)c(-c2cccc3c(N)c(C(=O)NC(C)C)nnc23)c1 | 4.7 µM (≈ 1.72 µg/mL)
15 | COc1ccc(OC)c(-c2cccc3c(N)c(C(=O)NCCC(F)(F)F)nnc23)c1 | 2.8 µM (≈ 1.18 µg/mL)
16 | COc1ccc(OC)c(-c2cccc3c(N)c(C(=O)NCCCO)nnc23)c1 | 11 µM (≈ 4.21 µg/mL)
17 | CNC(=O)c1nnc2c(-c3cc(OC)ccc3OC)cccc2c1N | 2.6 µM (≈ 0.88 µg/mL)
18 | CCC(C)NC(=O)c1nnc2c(-c3cc(OC)ccc3OC)cccc2c1N (stereo not given) | 1.2 µM (≈ 0.457 µg/mL)
19 | COc1ccc(OC)c(-c2cccc3c(N)c4c(nc23)CN(C2CC(C)C2)C4=O)c1 (stereo not given) | 0.9 µM (≈ 0.363 µg/mL)
20 | COc1ccc(OC)c(-c2cccc3c(N)c4c(nc23)CN(C2CCCC2)C4=O)c1 | 2.9 µM (≈ 1.17 µg/mL)

Row | SMILES | solubility
21 | CCN1Cc2nc3c(-c4cc(OC)ccc4OC)cccc3c(N)c2C1=O | 0.5 µM (≈ 0.182 µg/mL)
22 | COc1ccc(OC)c(-c2cccc3c(N)c4c(nc23)CN(C)C4=O)c1 | 0.8 µM (≈ 0.28 µg/mL)
23 | COc1ccc(OC)c(-c2cccc3c(N)c4c(nc23)CN(C2CCC2)C4=O)c1 | 2.3 µM (≈ 0.896 µg/mL)
24 | COc1ccc(OC)c(-c2cccc3c(N)c4c(nc23)CN(C2CC2)C4=O)c1 | 4.9 µM (≈ 1.84 µg/mL)
25 | COc1ccc(OC)c(-c2c(F)ccc3c(N)c(C(=O)NC4CC4)nnc23)c1 | 8.8 µM (≈ 3.37 µg/mL)
26 | CCCNC(=O)c1nnc2c(-c3cc(OC)ccc3OC)c(F)ccc2c1N | 3.3 µM (≈ 1.27 µg/mL)
27 | COc1ccc(OC)c(-c2c(F)ccc3c(N)c(C(=O)NC4CCC4)nnc23)c1 | 2.8 µM (≈ 1.11 µg/mL)
28 | CCNC(=O)c1nnc2c(-c3cc(OC)ccc3OC)c(F)ccc2c1N | 5 µM (≈ 1.85 µg/mL)
29 | COc1ccc(OC)c(-c2c(F)ccc3c(N)c(C(=O)NC(C)C)nnc23)c1 | 7.8 µM (≈ 3 µg/mL)
30 | COc1ccc(OC)c(-c2c(F)ccc3c(N)c4c(nc23)CN(C2CCC2)C4=O)c1 | 1 µM (≈ 0.407 µg/mL)
31 | COc1ccc(OC)c(-c2c(F)ccc3c(N)c4c(nc23)CN(C2CC2)C4=O)c1 | 1 µM (≈ 0.393 µg/mL)
32 | CCN1Cc2nc3c(-c4cc(OC)ccc4OC)c(F)ccc3c(N)c2C1=O | 0.3 µM (≈ 0.114 µg/mL)
33 | CCCNC(=O)c1nnc2c(-c3cnc(OC)nc3OC)cccc2c1N | 1.9 µM (≈ 0.7 µg/mL)
34 | CCCNC(=O)c1nnc2c(-c3cnccc3OC)cccc2c1N | 28.1 µM (≈ 9.48 µg/mL)
35 | CCCNC(=O)c1nnc2c(-c3cc(C)ccc3OC)cccc2c1N | 8.3 µM (≈ 2.91 µg/mL)
36 | COc1ccc(-c2c(F)ccc3c(N)c(C(=O)NC4CC4)nnc23)c(OC)n1 | 2 µM (≈ 0.767 µg/mL)
37 | COc1cc(-c2c(F)ccc3c(N)c(C(=O)NC4CC4)nnc23)c(OC)nn1 | 6.2 µM (≈ 2.38 µg/mL)
38 | COc1ncc(C)cc1-c1cccc2c(N)c(C(=O)NC3CC3)nnc12 | 10.8 µM (≈ 3.77 µg/mL)
39 | CCCNC(=O)c1nnc2c(-c3cc(OC)ccc3OC)cccc2c1N [AZD6280] | 3.9 µM (≈ 1.43 µg/mL)
40 | CCCNC(=O)c1nnc2c(-c3c(F)cccc3OC)cccc2c1N [AZD7325] | 7.6 µM (≈ 2.69 µg/mL)
